{"source": "BindingDB's records for doi:10.1124/jpet.103.062836", "about": "(Bayer Healthcare, 2004)", "key": {"Cannabinoid receptor 1": {"molecular_target": "Cannabinoid receptor 1 (Rattus norvegicus, UniProt P20272)", "sequence (P20272 whole entry)": "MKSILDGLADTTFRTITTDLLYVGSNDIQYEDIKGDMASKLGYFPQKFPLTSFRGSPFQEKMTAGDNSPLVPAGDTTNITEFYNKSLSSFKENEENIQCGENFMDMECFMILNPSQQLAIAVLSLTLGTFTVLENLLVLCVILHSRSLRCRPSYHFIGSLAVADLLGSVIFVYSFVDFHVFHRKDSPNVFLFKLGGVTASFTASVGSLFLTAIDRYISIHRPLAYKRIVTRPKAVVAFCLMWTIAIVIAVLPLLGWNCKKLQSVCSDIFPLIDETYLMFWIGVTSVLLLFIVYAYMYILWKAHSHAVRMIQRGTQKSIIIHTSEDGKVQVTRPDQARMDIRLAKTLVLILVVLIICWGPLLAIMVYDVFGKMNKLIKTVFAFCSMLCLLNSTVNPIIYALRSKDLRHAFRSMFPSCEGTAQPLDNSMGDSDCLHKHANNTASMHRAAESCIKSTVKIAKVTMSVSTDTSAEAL"}, "Cannabinoid receptor 2": {"molecular_target": "Cannabinoid receptor 2 (Homo sapiens, UniProt P34972)", "sequence (P34972 whole entry)": "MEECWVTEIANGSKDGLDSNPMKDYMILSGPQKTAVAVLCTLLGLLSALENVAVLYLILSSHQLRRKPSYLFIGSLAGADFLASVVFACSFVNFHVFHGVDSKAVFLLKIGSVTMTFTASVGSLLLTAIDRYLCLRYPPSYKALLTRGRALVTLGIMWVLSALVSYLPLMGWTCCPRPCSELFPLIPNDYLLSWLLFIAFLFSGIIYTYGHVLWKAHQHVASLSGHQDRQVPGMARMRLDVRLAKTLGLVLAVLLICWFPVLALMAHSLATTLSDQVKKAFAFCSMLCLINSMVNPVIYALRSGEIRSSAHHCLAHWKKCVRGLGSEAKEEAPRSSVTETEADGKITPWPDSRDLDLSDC"}}, "data": [{"smiles": "N#Cc1c(Oc2cccc(OS(=O)(=O)CCCC(F)(F)F)c2)cccc1C(F)(F)F", "values": [{"measurement": "Ki", "setting": "Cannabinoid receptor 1", "value": 55.4, "unit": "nM"}, {"measurement": "Ki", "setting": "Cannabinoid receptor 2", "value": 45.5, "unit": "nM"}]}]}
